# Reference: PMC7502707, “Characterization and validation of a preventative therapy for hypertrophic cardiomyopathy in a murine model of the disease” (Proceedings of the National Academy of Sciences of the …, 2020)
# Target: T1, cardiac L-type calcium channel (ICa-L) (Mus musculus, UniProt Q01815)
# T1 construct: measure changes in ICa-L currents ([13]), and stimulate calcium transients in intact ventricular myocytes; endogenous in cells; host or cells: ventricular myocytes isolated from wt (human cTnI transgene) and cTnI-G203S mice
# Assay: Whole-cell patch-clamp of ICa-L currents in ventricular myocytes
# Assay type: cell-based
# Details: cTnI-G203S myocytes, in vitro 1 μM peptide
# Procedure: The whole-cell configuration of the patch-clamp technique was used to measure changes in ICa-L currents ([13]), and stimulate calcium transients in intact ventricular myocytes. Detailed methods are provided in SI Appendix.
# Supporting Materials and Methods
# Isolation of ventricular myocytes
# Myocytes were isolated from wt and cTnI-G203S mice. Animals were anesthetized with pentobarbitone sodium (240 mg/kg) via intraperitoneal injection prior to excision of the heart. Cells were isolated as previously described (1-3). Mouse hearts were excised, cannulated onto a Langendorff apparatus via the aorta, and perfused with Krebs-Henseleit Buffer (KHB) containing […]
# O2/CO2 at 37°C) for 4 min at 37°C. […]
# The whole-cell configuration of the patch-clamp technique was used to measure changes in ICa-L currents (4), and stimulate calcium transients in intact ventricular myocytes. […] Currents were measured in extracellular modified Tyrode’s solution containing (in mM): NaCl 140, CsCl 5.4, CaCl2 2.5, MgCl2 0.5, HEPES 5.5 and glucose 11 (pH adjusted to 7.6 with NaOH). Macroscopic currents were recorded using an Axopatch 200B voltage-clamp amplifier (Molecular Devices) with a Digidata 1440A interface and pClamp10.5 software (Molecular Devices). […] The time course of changes in Ca2+ conductance were monitored by applying a 100 ms test pulse to 10 mV once every 10 seconds. […]
sequence,measurement,setting,value
QQLEEDLKGYLDWITQAE [AID-TAT],ICa-L current density,,no significant alteration
same,ICa-L inactivation rate (tau),37 °C,restored ICa-L inactivation rate to wt levels
